Experimental data taken from US20220298143A1, “Pyrazole Derivatives for FGFR Inhibitor and Preparation Method Thereof” (Etern Biopharma (Shanghai) Co., Ltd., priority 2019, published 2022).
Read-outs that look alike come from different tables or passages of the source.

How the values were obtained:
[1] = system: Hep3B cells; experiment: Human liver cancer cell Hep3B survival test (CellTiter-Glo); type: cell-based; conditions: 72 hours compound treatment
Protocol: Human Liver Cancer Cell Hep3B Survival Test
The human liver cancer Hep3B cell line was from ATCC. The cells were cultured in DMEM liquid medium, and fetal bovine serum (10% FBS) and penicillin-streptomycin (100,000 U/L) were added. The cells were kept at 37° C., 95% humidity and 5% carbon dioxide in the culture medium. During the experiment, Hep3B cells were seeded in a 96-well plate at a density of 3000 cells per well. The volume of the cell suspension was 100 μL per well, and the cells were cultured overnight to attach the cells. The next day, each compound was diluted with DMSO in a three-fold gradient, and 1 μL of the solution of the compound in DMSO was added to the cell culture medium. At the same time, 1 μL of DMSO was used as a control. Three parallel sub-wells were set for each concentration of each compound. Then the cells were placed in a 37° C. incubator. After 72 hours of continuous compound treatment, 50 μL CellTiter-Glo (Promega, Madison Wis.) was added to the cell culture medium. The relative luminescence unit (RLU) of each well was determined and the cell survival rate and compound activity (IC50) were calculated.

[2] = target: FGFR3 (Homo sapiens, UniProt P22607); experiment: Enzymatic activity test of FGFR inhibitor, Caliper model; type: biochemical; conditions: kinase pre-incubation 10 minutes
[3] = target: T1, FGFR4 (Homo sapiens, UniProt P22455); experiment: as above; type: biochemical
T1 construct: purchased Invitrogen PR4380A
Protocol: (§1) Enzymatic Activity Test of FGFR Inhibitor-Caliper Model
(§2) The specific operation steps were as follows:
(§3) The compound was first serially diluted in 5% DMSO solution, and 5 μL of the compound solution was added to a 384-well plate. The maximum final concentration of the compound is 1 μM, being diluted three times with 10 concentrations.
(§4) 10 μL of kinase solution was added to the 384-well plate and incubated at room temperature for 10 minutes;
(§5) 10 μL of P22 peptide and ATP solution were added to the 384-well plate, and 25 μL of reaction stop buffer was added after a specific time at 28° C.;
(§6) The data was collected in Caliper read and the inhibition rate was calculated according to inhibition rate=(max−conversion)/(max−min)*100, where max is DMSO control, conversion is the reading of the compound treated group, and min is the maximum inhibition control. IC50 value of the compound was calculated with XLfit excel add-in version 5.4.0.8 software.

[4] = target: FGFR2 (Homo sapiens, UniProt P21802); experiment: as above; type: biochemical; conditions: kinase pre-incubation 10 minutes
Protocol: as §1, §2, §3, §4, §5, §6

[5] = target: T2, FGFR1 (Homo sapiens, UniProt P11362); experiment: as above; type: biochemical
T2 construct: purchased Cama (sic; Carna) 08-133
Protocol: as §1, §2, §3, §4, §5, §6

[6] = Compound pharmacokinetic experiment, single intragastric administration; type: in vivo; conditions: mouse, plasma, male mice, oral dosage 15 mg/Kg; for Cmax: read-out: Peak plasma concentration Cmax; for AUC: read-out: Plasma exposure AUC
Protocol: Compound Pharmacokinetic Experiment
The pharmacokinetics of the compounds of the present disclosure was determined. This application used the following methods to determine the pharmacokinetic parameters of the compounds.
For the healthy male adult mice used in the study, each group of animals was given a single intragastric administration of 5-100 mg/Kg. Fasting was from 10 hours before administration to 4 hours after administration. Blood was collected at different time points after administration, and the plasma content of the compound was determined (LC-MS/MS). The plasma concentration-time relationship was analyzed with professional software (winnonlin) to calculate the pharmacokinetic parameters of the compound.

[7] = Caliper, kinase pre-incubation 10 minutes, read-out: FGFR4
[8] = Caliper, kinase pre-incubation 10 minutes, read-out: FGFR1

Chain of FGFR2 (P21802 22-821): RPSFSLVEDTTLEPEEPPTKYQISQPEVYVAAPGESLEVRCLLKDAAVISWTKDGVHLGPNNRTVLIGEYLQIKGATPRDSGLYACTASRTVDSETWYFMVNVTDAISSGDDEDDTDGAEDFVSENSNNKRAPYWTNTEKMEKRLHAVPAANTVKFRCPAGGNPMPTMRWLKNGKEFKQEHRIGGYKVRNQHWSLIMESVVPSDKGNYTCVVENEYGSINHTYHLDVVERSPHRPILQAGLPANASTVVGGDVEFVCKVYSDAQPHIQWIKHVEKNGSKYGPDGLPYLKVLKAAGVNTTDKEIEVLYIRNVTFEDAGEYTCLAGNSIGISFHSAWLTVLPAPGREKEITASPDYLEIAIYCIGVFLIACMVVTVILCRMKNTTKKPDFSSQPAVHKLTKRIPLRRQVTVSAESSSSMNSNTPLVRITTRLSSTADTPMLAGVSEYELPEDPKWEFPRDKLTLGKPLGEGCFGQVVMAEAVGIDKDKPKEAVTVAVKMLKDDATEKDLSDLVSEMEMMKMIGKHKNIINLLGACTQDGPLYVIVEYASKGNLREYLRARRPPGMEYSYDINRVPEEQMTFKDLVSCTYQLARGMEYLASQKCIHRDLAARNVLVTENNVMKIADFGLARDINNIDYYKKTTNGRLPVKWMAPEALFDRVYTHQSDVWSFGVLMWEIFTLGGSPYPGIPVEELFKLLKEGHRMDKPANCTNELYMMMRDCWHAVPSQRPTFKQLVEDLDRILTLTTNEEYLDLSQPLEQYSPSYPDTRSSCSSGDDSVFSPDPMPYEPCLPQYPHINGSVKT
Chain of FGFR3 (P22607 23-806): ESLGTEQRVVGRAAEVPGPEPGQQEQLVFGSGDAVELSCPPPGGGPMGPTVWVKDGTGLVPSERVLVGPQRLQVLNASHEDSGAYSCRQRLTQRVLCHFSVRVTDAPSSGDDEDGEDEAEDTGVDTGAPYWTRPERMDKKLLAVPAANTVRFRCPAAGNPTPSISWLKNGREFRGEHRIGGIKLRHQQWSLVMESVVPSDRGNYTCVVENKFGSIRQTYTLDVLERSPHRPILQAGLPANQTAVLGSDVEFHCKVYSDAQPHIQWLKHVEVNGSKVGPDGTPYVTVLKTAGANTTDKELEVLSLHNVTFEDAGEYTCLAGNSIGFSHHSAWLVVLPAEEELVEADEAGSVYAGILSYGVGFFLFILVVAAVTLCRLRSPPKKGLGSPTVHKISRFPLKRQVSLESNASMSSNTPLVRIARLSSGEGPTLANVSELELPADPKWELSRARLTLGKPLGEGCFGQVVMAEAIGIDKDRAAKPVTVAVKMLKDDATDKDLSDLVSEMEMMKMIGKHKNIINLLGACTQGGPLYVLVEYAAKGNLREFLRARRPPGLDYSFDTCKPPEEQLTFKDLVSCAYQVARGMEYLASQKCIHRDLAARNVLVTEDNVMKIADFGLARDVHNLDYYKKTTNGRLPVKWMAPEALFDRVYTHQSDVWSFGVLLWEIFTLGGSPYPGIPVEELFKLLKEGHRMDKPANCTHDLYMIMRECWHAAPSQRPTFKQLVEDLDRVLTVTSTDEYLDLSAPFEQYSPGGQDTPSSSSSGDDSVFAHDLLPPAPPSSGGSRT
T1 sequence (P22455 22-802): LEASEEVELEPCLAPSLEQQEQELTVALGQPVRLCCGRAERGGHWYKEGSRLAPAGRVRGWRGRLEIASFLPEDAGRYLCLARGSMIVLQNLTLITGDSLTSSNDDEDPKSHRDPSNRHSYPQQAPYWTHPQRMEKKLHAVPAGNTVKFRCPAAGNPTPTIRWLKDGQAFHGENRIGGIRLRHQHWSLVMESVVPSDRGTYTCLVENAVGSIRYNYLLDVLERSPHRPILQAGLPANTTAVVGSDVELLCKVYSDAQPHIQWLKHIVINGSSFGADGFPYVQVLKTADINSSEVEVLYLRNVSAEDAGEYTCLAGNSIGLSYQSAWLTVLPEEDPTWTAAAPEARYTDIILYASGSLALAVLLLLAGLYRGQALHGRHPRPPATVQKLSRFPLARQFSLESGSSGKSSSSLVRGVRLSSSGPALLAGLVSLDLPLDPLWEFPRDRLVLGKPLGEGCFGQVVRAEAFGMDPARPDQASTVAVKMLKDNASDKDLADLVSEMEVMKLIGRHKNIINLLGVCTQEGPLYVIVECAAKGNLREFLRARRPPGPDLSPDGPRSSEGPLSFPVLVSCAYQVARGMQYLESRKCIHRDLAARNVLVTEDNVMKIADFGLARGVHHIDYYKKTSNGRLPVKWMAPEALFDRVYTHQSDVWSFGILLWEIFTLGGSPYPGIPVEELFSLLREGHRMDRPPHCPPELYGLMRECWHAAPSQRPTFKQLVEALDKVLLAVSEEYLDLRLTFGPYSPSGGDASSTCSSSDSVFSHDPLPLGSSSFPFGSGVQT
T2 sequence (P11362 22-822): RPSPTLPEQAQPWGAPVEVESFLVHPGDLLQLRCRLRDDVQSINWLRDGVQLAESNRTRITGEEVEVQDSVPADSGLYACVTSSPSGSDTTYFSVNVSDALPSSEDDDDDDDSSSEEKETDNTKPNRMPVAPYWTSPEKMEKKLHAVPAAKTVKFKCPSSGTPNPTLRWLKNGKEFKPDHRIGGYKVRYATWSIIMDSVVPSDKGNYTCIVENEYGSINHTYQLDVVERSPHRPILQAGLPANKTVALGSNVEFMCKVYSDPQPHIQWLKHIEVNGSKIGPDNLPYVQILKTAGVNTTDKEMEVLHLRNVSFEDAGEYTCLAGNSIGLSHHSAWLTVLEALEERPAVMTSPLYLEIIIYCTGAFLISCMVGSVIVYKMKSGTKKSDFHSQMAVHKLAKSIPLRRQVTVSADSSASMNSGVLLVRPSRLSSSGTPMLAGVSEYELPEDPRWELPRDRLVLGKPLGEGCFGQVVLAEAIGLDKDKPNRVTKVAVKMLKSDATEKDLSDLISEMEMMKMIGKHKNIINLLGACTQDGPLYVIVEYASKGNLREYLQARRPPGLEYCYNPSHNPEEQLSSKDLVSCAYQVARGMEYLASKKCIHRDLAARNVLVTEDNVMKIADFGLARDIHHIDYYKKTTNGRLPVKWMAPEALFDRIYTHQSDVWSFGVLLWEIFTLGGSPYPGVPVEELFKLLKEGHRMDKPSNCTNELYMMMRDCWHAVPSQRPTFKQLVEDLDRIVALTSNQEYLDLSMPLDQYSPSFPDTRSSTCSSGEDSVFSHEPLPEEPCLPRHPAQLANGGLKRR

Row | SMILES | IC50 [1] [nM] | IC50 [2] [nM] | IC50 [3, 7] [nM] | IC50 [4] [nM] | IC50 [5, 8] [nM] | Cmax [6] [nM] | AUC [6] [µM·h] | IC50 [3] [nM] | IC50 [5] [nM]
1 | COc1cc(CCc2cc(NC(=O)c3ccc(N4C[C@@H](C)N[C@@H](C)C4)cc3)n[nH]2)cc(OC)c1 [AZD4547, reference compound] | 263 | – | – | – | – | – | – | – | –
2 | C=CC(=O)Nc1cc(N2CCN(CC(F)(F)F)CC2)ccc1C(=O)Nc1cc(CCc2cc(OC)cc(OC)c2)n[nH]1 [Compound 2, 2-acrylamide-N-(3-(3,5-dimethoxyphenethyl)-1H-pyrazol-5-yl)-4-(4-(2,2,2-trifluoroethyl)piperazin-1-yl) benzamide] | 0.8 | 2.8 | 3.3 | 3.7 | 3.3 | 2580 | 7.52 | – | –
3 | C=CC(=O)Nc1cc(N2CCN(CC(F)F)CC2)ccc1C(=O)Nc1cc(CCc2cc(OC)cc(OC)c2)n[nH]1 [Compound 3, 2-acrylamide-4-(4-(2,2-difluoroethyl)piperazin-1-yl)-N-(3-(3,5-dimethoxyphenethyl)-1H-pyrazol-5-yl)benzamide] | 3 | 4.6 | – | 5.3 | – | – | – | 5.7 | 3.6
4 | C=CC(=O)Nc1cc(OCC(F)(F)F)ccc1C(=O)Nc1cc(CCc2cc(OC)cc(OC)c2)n[nH]1 [Compound 5, 2-acrylamido-N-(3-(3,5-dimethoxyphenethyl)-1H-pyrazol-5-yl)-4-(2,2,2-trifluoroethoxy)benzamide] | 9 | 2.4 | 2.5 | 2.7 | 2.7 | – | – | – | –
5 | C=CC(=O)Nc1cc(N2CC(F)(F)C2)ccc1C(=O)Nc1cc(CCc2cc(OC)cc(OC)c2)n[nH]1 [Compound 6, 2-acrylamido-4-(3,3-difluoroazetidin-1-yl)-N-(3-(3,5-dimethoxyphenethyl)-1H-pyrazole-5-yl)benzamide] | 3 | 1.7 | 2 | 2.3 | 2.4 | – | – | – | –
6 | C=CC(=O)Nc1cc(N2CCC(F)(F)CC2)ccc1C(=O)Nc1cc(CCc2cc(OC)cc(OC)c2)n[nH]1 [Compound 7, 2-acrylamido-4-(4,4-difluoropiperidin-1-yl)-N-(3-(3,5-dimethoxyphenethyl)-1H-pyrazol-5-yl)benzamide] | 6 | 2.3 | 3.2 | 3.4 | 2.1 | – | – | – | –
7 | C=CC(=O)Nc1cc(N2CCC(F)(F)C2)ccc1C(=O)Nc1cc(CCc2cc(OC)cc(OC)c2)n[nH]1 [Compound 8, 2-acrylamido-4-(3,3-difluoropyrrolidin-1-yl)-N-(3-(3,5-dimethoxyphenethyl)-1H-pyrazol-5-yl)benzamide] | 8 | 2.3 | 2.7 | 2.8 | 2.7 | – | – | – | –
8 | C=CC(=O)Nc1cc(OCCC(F)(F)F)ccc1C(=O)Nc1cc(CCc2cc(OC)cc(OC)c2)n[nH]1 [Compound 9, 2-acrylamido-N-(3-(3,5-dimethoxyphenethyl)-1H-pyrazol-5-yl)-4-(3,3,3-trifluoropropoxy)benzamide] | 2 | 4.4 | 3.6 | 4.4 | 3.1 | – | – | – | –
9 | C=CC(=O)Nc1cc(N2CCN(CCC(F)(F)F)CC2)c(OC)cc1C(=O)Nc1cc(CCc2cc(OC)cc(OC)c2)n[nH]1 [Compound 10, 2-acrylamido-N-(3-(3,5-dimethoxyphenethyl)-1H-pyrazol-5-yl)-5-methoxy-4-(4-(3,3,3-trifluoropropyl)piperazin-1-yl)benzamide] | 3 | 7.4 | 4.4 | 6.1 | 5.7 | 1250 | 2.41 | – | –
10 | C=CC(=O)Nc1cc(N2CCN(CCC(F)(F)F)C(C)C2)ccc1C(=O)Nc1cc(CCc2cc(OC)cc(OC)c2)n[nH]1 (stereo not shown) [Compound 12, 2-acrylamido-N-(3-(3,5-dimethoxyphenethyl)-1H-pyrazol-5-yl)-4-(3-methyl-4-(3,3,3-trifluoropropyl)piperazin-1-yl)benzamide] | 0.5 | 3 | 3.9 | 4.1 | 2.7 | 663 | 1.42 | – | –
11 | C=CC(=O)Nc1cc(N(C)CCC(F)(F)F)ccc1C(=O)Nc1cc(CCc2cc(OC)cc(OC)c2)n[nH]1 [Compound 13, 2-acrylamido-N-(3-(3,5-dimethoxyphenethyl)-1H-pyrazol-5-yl)-4-(methyl(3,3,3-trifluoropropyl)amino)benzamide] | 12 | 3.1 | 3.8 | 4.9 | 3.4 | – | – | – | –
12 | C=CC(=O)Nc1cc(N2CCN(CC(F)(F)C(F)(F)F)CC2)ccc1C(=O)Nc1cc(CCc2cc(OC)cc(OC)c2)n[nH]1 [Compound 14, 2-acrylamido-N-(3-(3,5-dimethoxyphenethyl)-1H-pyrazol-5-yl)-4-(4-(2,2,3,3,3-pentafluoropropyl)piperazin-1-yl)benzamide] | 7 | 5.8 | 5.9 | 5.9 | 6.1 | 344 | 1.15 | – | –
13 | C=CC(=O)Nc1cc(N2CCN(CCC(F)(F)F)CC2)cnc1C(=O)Nc1cc(CCc2cc(OC)cc(OC)c2)n[nH]1 [Compound 15, 3-acrylamido-N-(3-(3,5-dimethoxyphenethyl)-1H-pyrazol-5-yl)-5-(4-(3,3,3-trifluoropropyl)piperazin-1-yl)pyridinecarboxamide] | 12 | 3.9 | 4.4 | 4.5 | 4.8 | – | – | – | –
14 | C=CC(=O)Nc1cc(N2CCN(CCC(F)(F)F)CC2)cc(F)c1C(=O)Nc1cc(CCc2cc(OC)cc(OC)c2)n[nH]1 [Compound 16, 2-acrylamido-N-(3-(3,5-dimethoxyphenethyl)-1H-pyrazol-5-yl)-6-fluoro-4-(4-(3,3,3-trifluoropropyl)piperazin-1-yl)benzamide] | 0.3 | – | – | – | – | – | – | – | –
15 | C=CC(=O)Nc1ccccc1C(=O)Nc1cc(CCc2cc(OC)cc(OC)c2)[nH]n1 [Control a, 2-acrylamido-N-(3-(3,5-dimethoxyphenethyl)-1H-pyrazol-5-yl)benzamide, reference compound] | 5 | 1.7 | – | 2.2 | 4.5 | 377 | 0.404 | – | –
